Reference: US20220090083A1, “TARGETING EGLN1 IN CANCER” (THE BROAD INSTITUTE, INC., priority 2018, published 2022)

Tests used:
ES2 [1] = assay: CellTiter-Glo viability assay, ES2; assay type: cell-based, human; details: for IC50: Homo sapiens, ES-2, ES2, read-out: IC50 cellular viability (CellTiter-Glo)
Protocol: CellTiter-Glo (CTG) viability assays were performed per the manufacturer's instructions. Briefly, 5,000-10,000 cells were seeded per well in a 96 well plate then treated with either DMSO or EGLN1 inhibitor in doses indicated. […] Data presented are the average of three technical replicates.

TOV112D [2] = assay: CellTiter-Glo viability assay, TOV112D; assay type: cell-based, human; details: 48 hours, increasing dose
Protocol: CellTiter-Glo (CTG) viability assays were performed per the manufacturer's instructions. Briefly, 5,000-10,000 cells were seeded per well in a 96 well plate then treated with either DMSO or EGLN1 inhibitor in doses indicated. […] Data presented are the average of three technical replicates. Data are representative of three independent experiments.

JHOC5 = assay: Long term proliferation assay, JHOC5; assay type: cell-based, human; details: JHOC5, dose-dependent
From the text: (§1) Data are representative of two independent experiments.

[3] = system: sensitive cell lines (EGLN1-dependent); details: up to 30 days, p<0.01
Protocol: Non-Cas9 expressing cells were plated on a 12 well or 6 well plate in triplicate with varying concentrations of FG-4592. Every 3-4 days cells were trypsinized, counted using Nexcelom Cellometer, and reseeded at equal densities with the same concentrations of FG-4592, IOX2, BAY85-3934 or VH298. Data presented are the average of three technical replicate wells when available, excluding wells where there were no live cells to passage.

tumors formed from ES2 = assay: Microdevice delivery into ES2 tumors, immunohistochemistry; assay type: in vivo, mice; details: ES2 (HIF1A WT) tumors, local microdevice delivery, 48 hours
Protocol: (§2) Female Athymic^Nu/Nu mice (8-10 weeks old) were used, were obtained from Jackson Laboratories and had access to food and water in appropriate housing conditions. All animal procedures performed at the Broad Institute were approved by the Institutional Animal Care and Use Committee (IACUC) and according to institutional regulations.
(§3) Devices were manufactured as previously described (42). Briefly, microscale devices at diameter […] and length 3 mm were manufactured and pure powder compounds were formulated in 50% PEG. Mice were subcutaneously delivered ovarian cancer cells and tumors were allowed to grow to 1 cm^2. Mice were anesthetized during implantation using 1% isoflurane. A 19-guage spinal biopsy needle (Angiotech) was inserted into the tumor and served as the location for the device to be implanted.
(§4) Immunohistochemistry was performed on 4 μm serial sections from formalin-fixed, paraffin-embedded (FFPE) tumor tissues. The samples were deparaffinized, rehydrated, and pretreated for antigen retrieval by microwave treatment. Immunostaining was done using cell proliferation marker Ki67 and cleaved caspase 3 (CCE) at the Koch Institute Microscopy Core Facility.
(§5) By inserting this microdevice directly into the tumor, the effect of FG-4592, Bay 85-3934 and VH298 in tumors was assessed in vivo. Specifically, ES2 cells were implanted with intact HIF1A (ES2) or HIF1A knockout (ES2 HIF1A KO) in immunodeficient mice and the tumors were allowed to grow to 1 cm^2 before implanting a microdevice containing the EGLN1 inhibitor FG-4592 and VHL inhibitor VH298. Following implantation, the tumors were collected after 48 hours and the tumors were sectioned and stained for proliferation with an antibody against Ki-67, a cellular marker for proliferating cells or Cleaved Caspase-3, a cellular marker for apoptosis.

HIF1A activity = assay: Hypoxia Response Element (HRE) luciferase reporter; assay type: cell-based, human; details: 48 hours post-treatment, increasing dose
Protocol: The Hypoxia Response Element (HRE) was designed based on previous publications (18, 19) and was cloned with a luciferase reporter. The construct was then stably transfected to EGLN1 dependent and independent cell lines. Following transfection cells were treated with EGLN1 inhibitor for up to 6 days and luciferase activity was measured as a readout of HIF1A activity.

OVISE [4] = assay: Long term proliferation assay, OVISE; assay type: cell-based, human; details: for long term proliferation: OVISE, dose-dependent
From the text: (§8) Data presented are the average of three technical replicate wells when available, excluding wells where there were no live cells to passage. Data are representative of two independent experiments.

ES2 [5] = assay: CFSE proliferation by flow cytometry, ES2; assay type: cell-based, human; details: ES2, increasing concentration, 48 hours
Protocol: (§6) Flow cytometry was performed at the Broad Institute Flow Cytometry core using CFSE (5(6)-Carboxyfluorescein N-hydroxysuccinimidyl ester)—Cell Labeling Kit (Abcam ab113853) to label dividing cells with CFSE and analyzed on FL-1 Excitation(max) 492 nm, Emission(max) 517 nm. Apoptosis was detected using PE Annexin V Apoptosis Detection Kit 1 (BD Biosciences 559763). Dual labeling Annexin V with 7-Amino-Actinomycin (7-AAD) allowed quantification of apoptosis. Data are presented as the average of two technical replicates and are representative of three independent experiments. Data were analyzed using FlowJo data analysis.

OVISE HIF1A knockout = assay: Proliferation assay, OVISE HIF1A knockout cells; assay type: cell-based, human; details: 10 uM and 20 uM
From the text: as §1
However, such depletion of HIF1A rescued EGLN1-sensitivity to FG-4592 in ES2 (FIG. 5C) and OVISE (FIG. 5D) (p<0.05) cell lines.

[6] = system: EGLN1-dependent cell lines OVTOKO, OVISE and ES2; details: hypoxia (5% oxygen) and normoxia
Protocol: Cells were plated at a low density (250-1000 cells/well) with varying concentrations of FG-4592 (Selleck) on 24 well plates. Media and drug were refreshed every 3-4 days for 10 days. Cells were fixed on the plate with 10% neutral buffered formalin (Thermo Fisher Scientific) and stained with 0.1% crystal violet in 10% ethanol. After plates were washed and dried, dye was extracted using 10% acetic acid. Absorbance of extracted dye samples at 595 nm was quantified using a Molecular Devices SpectraMax M5 Plate Reader. […] Data are representative of three independent experiments.
To test this hypothesis, colony-forming formation assays were performed in the context of normal culture conditions (normoxia) or in a hypoxic incubator at 5% oxygen (hypoxia).

TOV112D [7] = assay: CFSE proliferation by flow cytometry, TOV112D; assay type: cell-based, human; details: increasing concentration, 48 hours
Protocol: as §6

TOV112D [8] = assay: Annexin V apoptosis by flow cytometry, TOV112D; assay type: cell-based, human; details: 40 μM, 48 hours
Protocol: (§7) Flow cytometry was performed at the Broad Institute Flow Cytometry core using CFSE (5(6)-Carboxyfluorescein N-hydroxysuccinimidyl ester)—Cell Labeling Kit (Abcam ab113853) to label dividing cells with CFSE and analyzed on FL-1 Excitation(max) 492 nm, Emission(max) 517 nm. […] Dual labeling Annexin V with 7-Amino-Actinomycin (7-AAD) allowed quantification of apoptosis. Data are presented as the average of two technical replicates and are representative of three independent experiments. Data were analyzed using FlowJo data analysis.

ES2 HIF1A knockout = assay: Proliferation assay, ES2 HIF1A knockout cells; assay type: cell-based, human
From the text: as §8

TOV112D [9] = assay: Colony formation assay in hypoxia, TOV112D; assay type: cell-based, human; details: 5% oxygen
From the text: Data are representative of three independent experiments.

[10] = system: EGLN1-dependent cell lines; assay: Colony formation assay, EGLN1-dependent cell lines; assay type: cell-based, human
From the text: (§9) Media and drug were refreshed every 3-4 days for 10 days. Cells were fixed on the plate with 10% neutral buffered formalin (Thermo Fisher Scientific) and stained with 0.1% crystal violet in 10% ethanol. After plates were washed and dried, dye was extracted using 10% acetic acid. Absorbance of extracted dye samples at 595 nm was quantified using a Molecular Devices SpectraMax M5 Plate Reader. […] Data are representative of three independent experiments.

TOV21G = assay: Long term proliferation assay, TOV21G; assay type: cell-based, human; details: dose-dependent
From the text: as §1

[11] = system: not EGLN1-dependent cell lines; assay: Colony formation assay, not EGLN1-dependent cell lines; assay type: cell-based, human
From the text: as §9

[12] = system: tumors formed from ES2 with HIF1A KO; assay: Microdevice delivery into ES2 HIF1A KO tumors, immunohistochemistry; assay type: in vivo, mice; details: local microdevice delivery, 48 hours
Protocol: as §2, §3, §4, §5

EGLN1-dependent cells = assay: CellTiter-Glo viability assay over 5 days; assay type: cell-based, human; details: treated over 5 days
Protocol: CellTiter-Glo (CTG) viability assays were performed per the manufacturer's instructions. Briefly, 5,000-10,000 cells were seeded per well in a 96 well plate then treated with either DMSO or EGLN1 inhibitor in doses indicated. Following 3-6 days treatment (retreated at day 4) CTG compound was added and viability was measured. Data presented are the average of three technical replicates.

OVISE [13] = assay: Annexin V apoptosis by flow cytometry, OVISE; assay type: cell-based, human; details: 40 μM, 48 hours
Protocol: as §7

ES2 [14] = assay: Long term proliferation assay, ES2; assay type: cell-based, human; details: for proliferation: ES2 control sgRNA cells; for long term proliferation: ES2
From the text: as §8

ES2 [15] = assay: Annexin V apoptosis by flow cytometry, ES2; assay type: cell-based, human; details: ES2, 40 μM, 48 hours
Protocol: as §7

OVCAR4 = assay: Annexin V apoptosis by flow cytometry, OVCAR4; assay type: cell-based, human; details: OVCAR4, 40 μM, 48 hours
Protocol: as §7

HIF1A = assay: Immunoblot of HIF1A levels after inhibitor treatment; assay type: cell-based, human
OVTOKO = assay: Long term proliferation assay, OVTOKO; assay type: cell-based, human; details: dose-dependent
From the text: as §1

TOV112D [16] = assay: Long term proliferation assay, TOV112D; assay type: cell-based, human
From the text: as §1

Compound	tumor cell apoptosis (Cleaved Caspase-3 immunostaining) (tumors formed from ES2)	tumor cell proliferation (Ki-67 immunostaining) (tumors formed from ES2)	colony formation [10]	IC50 (ES2 [1]) [µM]	colony formation [11]	tumor cell apoptosis (Cleaved Caspase-3 immunostaining) [12]	tumor cell proliferation (Ki-67 immunostaining) [12]	viability (CTG) (EGLN1-dependent cells)	HIF1A levels (immunoblot) (HIF1A; ES2 cells)	HIF1A levels (immunoblot) (HIF1A; TOV112D cells)	long term proliferation (OVISE [4])	long term proliferation (OVTOKO)	long term proliferation (ES2 [14])	further results
O=C(O)CNC(=O)c1nc(Cl)c2ccccc2c1O [FG-2216]														sensitivity of ES2 to EGLN1 inhibitors (viability) (ES2 [1]; ES2, FIG. 11D): showed sensitivity
Cc1nc(C(=O)NCC(=O)O)c(O)c2ccc(Oc3ccccc3)cc12 [FG-4592]	increased apoptosis	dramatic reduction in proliferating cells	reduced colony formation	40 to 50	no effect	no change	no change	reduced viability in a dose-dependent manner	increased HIF1A levels in a dose-dependent manner	increased HIF1A levels in a dose-dependent manner				cell viability (CellTiter-Glo) (TOV112D [2]): no effect; long term proliferation (JHOC5): reduced long term proliferation; long term proliferation [3]: significantly reduced long term proliferation; HIF1A activity (HRE luciferase reporter) (HIF1A activity): increased in both EGLN1-dependent cell lines and cell lines not dependent on EGLN1; proliferation (OVISE [4]; OVISE control sgRNA cells, 10 uM and 20 uM): reduced proliferation of control cells; cell proliferation (CFSE stain, flow cytometry) (ES2 [5]): reduced cell proliferation; proliferation (OVISE HIF1A knockout): resistant to EGLN1 inhibition; colony formation, sensitivity to inhibitor [6]: sensitive; cell proliferation (CFSE stain, flow cytometry) (TOV112D [7]): did not reduce cell proliferation; apoptosis (Annexin V stain) (TOV112D [8]): not increasing apoptosis; proliferation (ES2 HIF1A knockout; 10 uM and 20 uM): resistant to EGLN1 inhibition; colony formation, sensitivity to inhibitor (TOV112D [9]): Increased sensitivity to EGLN1 inhibition was not observed; long term proliferation (TOV21G): reduced the long term proliferation; cell viability (CellTiter-Glo) (ES2 [1]; ES2, 48 hours, increasing dose): reduced viability; apoptosis (Annexin V stain) (OVISE [13]): increased apoptosis; proliferation (ES2 [14]; 10 uM and 20 uM): reduced proliferation of control cells; apoptosis (Annexin V stain) (ES2 [15]): increased apoptosis; apoptosis (Annexin V stain) (OVCAR4): not increasing apoptosis
O=C(O)CNC(=O)c1c(O)c2ccccc2n(Cc2ccccc2)c1=O [IOX2]			reduced colony formation		no effect			reduced viability in a dose-dependent manner			reduced long term proliferation	reduced long term proliferation	reduced long term proliferation	
O=c1c(-n2ccnn2)c[nH]n1-c1cc(N2CCOCC2)ncn1 [Molidustat]				40 to 50					increased HIF1A levels in a dose-dependent manner	increased HIF1A levels in a dose-dependent manner				
Cc1ncsc1-c1ccc(CNC(=O)[C@@H]2C[C@@H](O)CN2C(=O)[C@@H](NC(=O)C2(C#N)CC2)C(C)(C)C)cc1 [VH298]	increased apoptosis	reduction of proliferating cells				dependent on intact HIF1A	dependent on intact HIF1A		increased HIF1A levels in a dose-dependent manner		reduced long term proliferation	reduced long term proliferation	substantially decreased cell proliferation	proliferation (ES2 HIF1A knockout; 100 uM): resistant to VHL1 inhibition; proliferation (TOV112D [16]): slightly decreased proliferation; proliferation (ES2 [14]; 100 uM): significantly reduced proliferation of control cells
COc1cccc2c1C(=O)c1c(O)c3c(c(O)c1C2=O)C[C@@](O)(C(=O)CO)C[C@@H]3O[C@H]1C[C@H](N)[C@H](O)[C@H](C)O1 [doxorubicin]	increased apoptosis	reduced proliferation				increased apoptosis	reduced proliferation							
